Literature values as cited in patent publication US20210196621A1, “ALCOHOL-FREE BOTANICAL ORAL CARE PRODUCTS” (The Trustees of Columbia University in the City of New York, priority 2018, published 2021).

What was measured:
[1] = oral rinses, WO 2014/092999

[H]/N=C(\N/C(=N/[H])NCCCCCCNC(=N)NC(=N)Nc1ccc(Cl)cc1)Nc1ccc(Cl)cc1 [chlorhexidine]
Synergism with botanical blend absent pomegranate extract (absent pomegranate extract): did not show significant synergism
Synergism with botanical blends containing pomegranate extract (blends containing pomegranate extract): synergistically enhanced the antibacterial activity
Synergistic activity with thymol and vanilla extract [1]: did not

PHMB
Synergistic activity with thymol and vanilla extract [1]: showed synergistic activity
